Test [1] addresses T1, hTAS1R2 + hTAS1R3 C801I^7.39 (Homo sapiens, UniProt Q7RTX0+Q8TE23, C801I).
T1 construct: expressed in transfected cells; host or cells: HEK293T cells stably expressing G16Gust44
T1 sequence (Q7RTX0 21-852 C801I): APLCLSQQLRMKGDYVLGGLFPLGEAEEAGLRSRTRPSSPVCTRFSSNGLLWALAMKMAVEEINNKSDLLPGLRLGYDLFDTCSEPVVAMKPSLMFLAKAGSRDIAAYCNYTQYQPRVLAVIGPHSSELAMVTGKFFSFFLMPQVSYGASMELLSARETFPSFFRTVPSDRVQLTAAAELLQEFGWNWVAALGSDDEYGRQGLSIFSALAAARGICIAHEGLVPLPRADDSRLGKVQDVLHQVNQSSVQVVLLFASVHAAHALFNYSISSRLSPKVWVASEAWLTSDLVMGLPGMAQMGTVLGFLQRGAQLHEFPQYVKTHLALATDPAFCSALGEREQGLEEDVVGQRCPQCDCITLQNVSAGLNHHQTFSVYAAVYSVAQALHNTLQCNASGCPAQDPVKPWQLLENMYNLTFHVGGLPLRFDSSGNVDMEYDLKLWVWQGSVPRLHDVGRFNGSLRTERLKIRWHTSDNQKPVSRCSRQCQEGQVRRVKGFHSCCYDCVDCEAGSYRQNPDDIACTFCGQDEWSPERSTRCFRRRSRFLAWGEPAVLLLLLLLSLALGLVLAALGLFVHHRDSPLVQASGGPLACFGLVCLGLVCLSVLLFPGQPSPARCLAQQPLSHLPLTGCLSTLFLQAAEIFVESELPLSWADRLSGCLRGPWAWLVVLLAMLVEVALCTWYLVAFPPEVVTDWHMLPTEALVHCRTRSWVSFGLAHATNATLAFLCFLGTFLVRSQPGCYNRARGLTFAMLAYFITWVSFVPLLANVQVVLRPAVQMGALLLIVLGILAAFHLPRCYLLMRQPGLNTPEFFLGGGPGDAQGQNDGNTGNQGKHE
T1 sequence (Q8TE23 20-839): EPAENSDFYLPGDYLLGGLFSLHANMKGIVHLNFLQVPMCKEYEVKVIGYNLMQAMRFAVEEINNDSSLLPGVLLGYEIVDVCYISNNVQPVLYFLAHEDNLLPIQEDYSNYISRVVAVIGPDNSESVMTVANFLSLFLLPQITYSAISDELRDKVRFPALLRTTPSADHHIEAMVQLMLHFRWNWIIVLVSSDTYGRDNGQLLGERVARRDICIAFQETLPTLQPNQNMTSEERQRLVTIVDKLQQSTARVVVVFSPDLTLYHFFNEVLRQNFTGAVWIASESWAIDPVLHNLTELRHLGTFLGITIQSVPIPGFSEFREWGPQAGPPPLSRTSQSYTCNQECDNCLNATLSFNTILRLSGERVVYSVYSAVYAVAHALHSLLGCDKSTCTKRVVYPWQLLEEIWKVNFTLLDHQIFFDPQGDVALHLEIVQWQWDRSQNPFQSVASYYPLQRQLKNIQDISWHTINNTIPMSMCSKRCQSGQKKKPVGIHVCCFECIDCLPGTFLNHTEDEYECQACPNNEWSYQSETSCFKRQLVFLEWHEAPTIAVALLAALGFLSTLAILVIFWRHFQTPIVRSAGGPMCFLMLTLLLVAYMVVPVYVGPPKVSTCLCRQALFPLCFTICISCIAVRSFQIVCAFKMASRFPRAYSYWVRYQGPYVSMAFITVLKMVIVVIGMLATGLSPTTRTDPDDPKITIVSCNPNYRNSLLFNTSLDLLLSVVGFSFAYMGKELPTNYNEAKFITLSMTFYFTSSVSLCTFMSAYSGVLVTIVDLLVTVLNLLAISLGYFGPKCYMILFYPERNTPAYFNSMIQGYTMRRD
As to the kind of experiment: Calcium response (FLIPR), hTAS1R3 mutant coexpressed with hTAS1R2. Format: cell-based. To be noted: for EC50 / Emax: variant C801I^7.39; for Emax: read-out: maximal signal (% of wt). The procedure: (§1) The cDNAs for TAS1Rs tagged at the C-terminus with the herpes simplex virus glycoprotein D (HSV) were transiently transfected into HEK293T cells stably expressing the chimeric G-protein subunit G16Gust44 [44] using Lipofectamine 2000 (Invitrogen, Carlsbad, CA) according to the manufacturer's protocol. 3–4 hours after transfection, DMEM was replaced by low-glucose DMEM supplemented with GlutaMAX and 10% dialyzed FBS (Invitrogen, Carlsbad, CA). 24 h post transfection, cells were loaded for 1 h with the calcium sensitive dye Fluo4-AM (2 μg/ml in DMEM, Molecular Probes, Carlsbad, CA). […] We monitored calcium mobilization following receptor stimulation with sweet tastants by an automated fluorometric imaging plate reader (FLIPR, Molecular Devices, Sunnyvale, CA). Compounds used as stimuli (Sigma-Aldrich, St. Louis, MO; Merck, Whitehouse Station, NJ) were dissolved in C1 solution. All data were collected from at least three independent experiments carried out in duplicate. The obtained calcium signals were corrected for the response of mock transfected cells and normalized to the fluorescence of cells prior to the application of the stimulus using ΔF/F = (F-F0)/F0.

Test [2] deals with T2, hTAS1R2 + hTAS1R3 H734A^5.47 (Homo sapiens, UniProt Q7RTX0+Q8TE23, H734A).
T2 construct: expressed in transfected cells; host or cells: HEK293T cells stably expressing G16Gust44
T2 sequence (Q8TE23 20-839): T1 sequence (Q8TE23 20-839)
T2 sequence (Q7RTX0 21-852 H734A): T1 sequence (Q7RTX0 21-852 C801I) with H714A, I781C
The description is as above. Conditions: for receptor response: mutant H734A^5.47; for EC50: variant H734A^5.47, n.f. = no response to any tested sweetener. Format: cell-based. The procedure:
as §1

The structures appear in SMILES notation. Positions count from the first letter of the chain named. Where a SMILES comes first, the peptide text is derived from it.

A word on the EC50: it is the concentration that produces a half-maximal response. With `COc1ccc(CCC(=O)c2c(O)cc(O[C@@H]3O[C@H](CO)[C@@H](O)[C@H](O)[C@H]3O[C@@H]3O[C@@H](C)[C@H](O)[C@@H](O)[C@H]3O)cc2O)cc1O` [NHDC, neohesperidin dihydrochalcone], in test [1], the EC50 turned out to be 1600 ± 700 µM and the Emax is 70 ± 13%. In test [2], the receptor response entry is given as “did not respond” and the EC50 entry is on record as “n.f”.
For `O=S(=O)(O)NC1CCCCC1` [cyclamate], in test [1] (mutant C801I^7.39, any tested concentration), the receptor activation result is “could not be activated at any tested concentration”. Further, in test [2], the receptor response result is “did not respond”.
In the case of `COC(=O)[C@H](Cc1ccccc1)NC(=O)[C@@H](N)CC(=O)O` [aspartame] (HELM PEPTIDE1{D.F.[CO[*:1]]}$$$$V2.0), in test [1], the EC50 worked out at 1200 ± 500 µM and the Emax came out at 50 ± 9%. In test [2], the receptor response entry is on record as “did not respond” and the EC50 result is listed as “n.f”.
For `CC1=CC(=O)NS(=O)(=O)O1` [acesulfame K], the receptor response result in test [2] is on record as “did not respond”.

The record behind these values is article PMC2099433, “The binding site for neohesperidin dihydrochalcone at the human sweet taste receptor” (BMC Structural Biology, 2007).
